{"source": "paper PMC11311998", "about": "“AR71, Histamine H3 Receptor Ligand—In Vitro and In Vivo Evaluation (Anti-Inflammatory Activity, Metabolic Stability, Toxicity, and Analgesic Action)” (International Journal of Molecular Sciences, 2024)", "key": {"CCI-exposed mice [1]": {"tested_on": "CCI-exposed mice", "test": "tail flick test in CCI neuropathic pain model", "assay_type": "in vivo, mouse", "details": "20 mg/kg i.p.", "procedure": "(§1) The effects of a single intraperitoneal (i.p.) injection of AR71 at doses of 5, 10, and 20 mg/kg on mechanical (von Frey test) and thermal (cold plate and tail flick tests) stimulus were evaluated on day 14 following sciatic nerve injury (Figure 15). There were seven to eight animals per group. All these tests were performed in three time series after the administration of the compound. In the case of the von Frey test—after 30, 90, and 180 min; the cold plate test—after 35, 95, and 185 min; and the tail flick test—after 40, 100, and 190 min.\nThe mice were randomly divided into four experimental groups. One group received a vehicle treatment (10% DMSO/10%(2-Hydroxypropyl)-β-cyclodextrin/water for injection, i.p.), while the other three groups were administered with AR71 at doses of 5, 10, or 20 mg/kg of body weight (b.w.), i.p. Baseline measurements for all tests were conducted before the compounds were injected, and the results are presented as percentages of the maximal possible effect (% MPE). […] All data from behavioural tests were analysed using a one-way ANOVA with Bonferroni’s multiple comparison post hoc test. […]\nTail flick latency was measured on the dorsal part of the tail at two-thirds of its length by applying a focused beam of light (thermal stimulus). The time interval between the thermal stimulus’s onset and the tail’s withdrawal from the beam was recorded. […]"}, "hH3R": {"target": "T1, hH3R (Homo sapiens, UniProt Q9Y5N1)", "T1 construct": "expressed in transfected cells; host or cells: HEK 293 cells stably expressing hH3R, provided by Dr Thierry Calmels, Bioprojet-Biotech (France)", "T1 sequence (Q9Y5N1 whole entry)": "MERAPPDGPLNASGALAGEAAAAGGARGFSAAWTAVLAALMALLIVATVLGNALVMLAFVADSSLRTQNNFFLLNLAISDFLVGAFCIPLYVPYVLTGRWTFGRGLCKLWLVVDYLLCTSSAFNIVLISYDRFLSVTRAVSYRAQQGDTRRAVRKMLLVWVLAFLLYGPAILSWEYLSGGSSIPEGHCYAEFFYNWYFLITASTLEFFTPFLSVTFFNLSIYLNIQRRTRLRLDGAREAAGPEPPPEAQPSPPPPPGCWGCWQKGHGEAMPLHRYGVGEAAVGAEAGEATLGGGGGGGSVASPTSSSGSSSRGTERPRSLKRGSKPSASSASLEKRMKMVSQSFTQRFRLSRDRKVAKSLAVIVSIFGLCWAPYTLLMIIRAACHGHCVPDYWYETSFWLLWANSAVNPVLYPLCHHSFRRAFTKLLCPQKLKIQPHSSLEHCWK", "test": "cAMP accumulation assay in HEK 293 cells stably expressing the hH3R", "assay_type": "cell-based", "procedure": "The intrinsic activity of AR71 was evaluated in a 3′,5′-cyclic adenosine monophosphate (cAMP) accumulation assay in human embryonic kidney (HEK) 293 cells, stably expressing the hH3R [42].\nThe intrinsic activity of AR71 was evaluated in a 3′,5′-cyclic adenosine monophosphate (cAMP) accumulation assay in human embryonic kidney (HEK) 293 cells, stably expressing the hH3R [42], using the LANCE Ultra cAMP kit (Perkin Elmer, Waltham, MA, USA). The applied method was intended to measure the levels of cAMP generated because of changes in adenylyl cyclase activity mediated by GPCRs. The assay is based on the competition between the europium (Eu) chelate-labelled cAMP tracer and sample cAMP for binding sites on cAMP-specific monoclonal antibodies labelled with the ULight dye. The effect of AR71 (concentrations: 10^−10–10^−5 M) on reversing the inhibition of cAMP production by (R)-(-)-α-methyl histamine (30 nM) in forskolin-stimulated (10 μM) cells was evaluated. The experiment was conducted according to the principles described earlier. Experiments were performed three times in triplicates, and IC50 values were determined using GraphPad Prism 8.4.3 software.\nFigure S1. Forskolin-stimulated cAMP accumulation studies in HEK 293 cells expressing the human histamine H3\nreceptor, co-treated with (R)(-)-α-Methylhistamine […] and AR71 (30 nM). […]"}, "CCI-exposed mice [2]": {"tested_on": "CCI-exposed mice", "test": "CCI neuropathic pain model, all behavioural tests and observation", "assay_type": "in vivo, mouse", "procedure": "as §1\nThe mice were randomly divided into four experimental groups. One group received a vehicle treatment (10% DMSO/10%(2-Hydroxypropyl)-β-cyclodextrin/water for injection, i.p.), while the other three groups were administered with AR71 at doses of 5, 10, or 20 mg/kg of body weight (b.w.), i.p. Baseline measurements for all tests were conducted before the compounds were injected, and the results are presented as percentages of the maximal possible effect (% MPE). […] All data from behavioural tests were analysed using a one-way ANOVA with Bonferroni’s multiple comparison post hoc test.\nAssessment of the analgesic activity of AR71 was performed using a mouse experimental model of chronic constriction injury of the sciatic nerve, by three tests including the von Frey test, the cold plate test, and the tail flick test. […]"}}, "data": [{"smiles": "COc1cc(/C=C/C(=O)c2ccc(OCCCN3CCCCC3)cc2)cc(OC)c1OC", "note": "[AR71, (E)-3-(3,4,5-trimethoxyphenyl)-1-(4-(3-(piperidin-1-yl)propoxy)phenyl)prop-2-en-1-one]", "values": [{"measurement": "effect in tail flick test vs vehicle", "setting": "CCI-exposed mice [1]; 100 and 190 min (p < 0.001 and p < 0.01)", "result": "significant pain-relieving effects"}, {"measurement": "effect in tail flick test vs vehicle", "setting": "CCI-exposed mice [1]; 40 min post-injection, p < 0.05", "result": "significant analgesic effect"}, {"measurement": "intrinsic activity profile at H3R", "setting": "hH3R; counteracts inhibition of cAMP production by (R)-(-)-α-methyl histamine in forskolin-stimulated cells", "result": "H3R antagonist/inverse agonist"}, {"measurement": "IC50", "setting": "hH3R; reversal of inhibition of cAMP production by (R)-(-)-α-methyl histamine (30 nM) in forskolin-stimulated (10 μM) cells", "result": "83.5 ± 11.9", "unit": "nM"}, {"measurement": "sedative, locomotor or gastrointestinal effects", "setting": "CCI-exposed mice [2]; 5, 10, 20 mg/kg i.p.", "result": "no sedative, locomotor, or gastrointestinal effects"}, {"measurement": "dose with the highest analgesic effects", "setting": "CCI-exposed mice [2]; single i.p. injection, doses 5, 10, 20 mg/kg, day 14 after CCI", "result": 20, "unit": "mg/kg"}]}]}
